Laboratory results: article PMC3749120, “RasGRPs Are Targets of the Anti-Cancer Agent Ingenol-3-Angelate” (PLoS ONE, 2013)

Columns and labels:
RasGRP3 [1] = target: T1, RasGRP3 (Homo sapiens, UniProt Q8IV61); experiment: [3H]PDBu radioligand binding
T1 construct: full-length
T1 sequence (Q8IV61 1-690): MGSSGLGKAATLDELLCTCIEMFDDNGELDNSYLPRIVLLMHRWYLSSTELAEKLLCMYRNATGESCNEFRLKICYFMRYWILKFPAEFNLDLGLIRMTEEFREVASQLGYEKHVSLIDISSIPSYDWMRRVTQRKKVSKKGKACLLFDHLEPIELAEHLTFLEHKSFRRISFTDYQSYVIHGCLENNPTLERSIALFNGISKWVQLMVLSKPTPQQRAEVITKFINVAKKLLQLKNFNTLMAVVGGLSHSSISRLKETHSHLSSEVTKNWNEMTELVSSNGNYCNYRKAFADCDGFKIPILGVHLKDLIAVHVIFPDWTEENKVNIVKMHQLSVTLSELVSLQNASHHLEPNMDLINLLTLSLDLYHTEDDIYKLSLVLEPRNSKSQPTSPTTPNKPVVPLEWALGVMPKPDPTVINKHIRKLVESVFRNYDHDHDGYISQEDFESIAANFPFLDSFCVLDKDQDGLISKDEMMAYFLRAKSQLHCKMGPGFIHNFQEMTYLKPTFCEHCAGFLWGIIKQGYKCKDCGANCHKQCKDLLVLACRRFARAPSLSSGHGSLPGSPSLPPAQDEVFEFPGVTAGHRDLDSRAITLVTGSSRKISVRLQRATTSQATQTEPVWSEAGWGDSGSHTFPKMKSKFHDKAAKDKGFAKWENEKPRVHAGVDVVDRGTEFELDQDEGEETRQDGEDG

RasGRP3 [2] = target: T1, RasGRP3; experiment: competition radioligand binding with [3H]phorbol […],13-dibutyrate, […]°C

Structure (SMILES) | Kd (RasGRP3 [1]) [pM] | Kd (RasGRP3 [2]) [pM]
CCCC(=O)O[C@@H]1[C@@H](C)[C@@]2(O)[C@@H](C=C(CO)C[C@]3(O)C(=O)C(C)=C[C@@H]23)[C@@H]2C(C)(C)[C@]12OC(=O)CCC [PDBu, phorbol 12,13-dibutyrate] | 420 ± 30 | 
C/C=C(/C)C(=O)O[C@H]1C(C)=C[C@]23C(=O)[C@@H](C=C(CO)[C@@H](O)[C@]12O)[C@H]1[C@@H](C[C@H]3C)C1(C)C [I3A, Ingenol-3-angelate] |  | 45 ± 5
